Data set [1] deals with subjects with idiopathic pruritus. The experiment in a line: Phase II randomized, double-blind, placebo-controlled clinical study of serlopitant for chronic pruritus (post hoc WI-NRS 4-point responder analysis). In kind it is in vivo, human. The conditions noted are these: for WI-NRS 4-point Responder Rate at Week 6: 6 weeks, 3-tablet loading dose Day 1.
Another data set concerns patients with pruritus. The experiment in a line: Pooled clinical studies, age-related effects of serlopitant (NRS change, NRS 4-point responder rate). The format is in vivo, human. Conditions: older patients (e.g., 40 years or older) compared with younger patients; pooled 1 mg and 5 mg. The procedure: Data obtained from the clinical studies described in Examples 6-8 for patients administered 1 mg and 5 mg serlopitant were pooled and evaluated on the basis of the age of the subjects.

For data set [2] the following is noted: cited from earlier work.

Take `CC(O[C@H]1CC[C@@H]2CN(C3=CC(=O)CC3)C[C@H]2[C@@H]1c1ccc(F)cc1)c1cc(C(F)(F)F)cc(C(F)(F)F)c1` (stereo partly drawn) [serlopitant, 3-[(3aR,4R,5S,7aS)-5-[(1R)-1-[3,5-bis(trifluoromethyl)phenyl]cthoxy]-4-(4-fluorophenyI)-1,3,3a,4,5,6,7,7a-octahydroisoindol-2-yl]cyclopent-2-en-1-one]: the “WI-NRS 4-point Responder Rate at Week 6” value in data set [1] (all patients, 0.25 mg once daily oral) is on record as 38.5% (n = 52); in data set [1] (all patients, 1 mg once daily oral) it was 32.7% (n = 55); in data set [1] (all patients, 5 mg once daily oral), 46.2% (n = 52); in data set [1] (patients with inflammatory skin disease, 0.25 mg once daily oral), 30.8% (n = 26); in data set [1] (patients with inflammatory skin disease, 1 mg once daily oral), 29.6% (n = 27); in data set [1] (patients with inflammatory skin disease, 5 mg once daily oral), 33.3% (n = 18). Moreover, the “WI-NRS 4-point Responder Rate at Week 6” value in data set [1] (patients without inflammatory skin disease, 0.25 mg once daily oral) was 46.2% (n = 26); in data set [1] (patients without inflammatory skin disease, 1 mg once daily oral), 35.7% (n = 28); in data set [1] (patients without inflammatory skin disease, 5 mg once daily oral) it was 52.9% (n = 34). Further, in data set [1] (patients without inflammatory skin disease compared with patients with inflammatory skin disease), the “response to serlopitant therapy, patients without vs with inflammatory skin disease” value is “appeared to respond better”. Moreover, in the data set with patients with pruritus, the “response to serlopitant therapy as function of age (NRS change from baseline, NRS 4-point Responder Rate)” value is recorded as “responded better”.
Turning to `C[C@@H](O[C@H]1CC[C@@H]2CN(C3=CC(=O)CC3)C[C@H]2[C@@H]1c1ccc(F)cc1)c1cc(C(F)(F)F)cc(C(F)(F)F)c1` [Form I], in data set [2] (Form I relative to Form II of free base serlopitant), the “thermodynamic stability of polymorph” value was “thermodynamically more stable below 70 °C”. The hygroscopicity result in data set [2] (all tested relative humidity conditions) was “non-hygroscopic”.
